Assay results: patent publication US20120122860A1, “SOLID FORMS OF SULFONAMIDES AND AMINO ACIDS” (Plexxikon, Inc., priority 2009, published 2012)

Experiments:
B-Raf = B-Raf (Homo sapiens, UniProt P15056); test: Kinase activity assay, B-Raf; assay type: biochemical; conditions: read-out: activity toward kinase B-Raf, IC50
B-Raf V600E = B-Raf V600E (Homo sapiens, UniProt P15056, V600E); test: Kinase activity assay, B-Raf V600E; assay type: biochemical; conditions: read-out: activity toward kinase B-Raf V600E, IC50
Chain of B-Raf V600E (P15056 whole entry V600E): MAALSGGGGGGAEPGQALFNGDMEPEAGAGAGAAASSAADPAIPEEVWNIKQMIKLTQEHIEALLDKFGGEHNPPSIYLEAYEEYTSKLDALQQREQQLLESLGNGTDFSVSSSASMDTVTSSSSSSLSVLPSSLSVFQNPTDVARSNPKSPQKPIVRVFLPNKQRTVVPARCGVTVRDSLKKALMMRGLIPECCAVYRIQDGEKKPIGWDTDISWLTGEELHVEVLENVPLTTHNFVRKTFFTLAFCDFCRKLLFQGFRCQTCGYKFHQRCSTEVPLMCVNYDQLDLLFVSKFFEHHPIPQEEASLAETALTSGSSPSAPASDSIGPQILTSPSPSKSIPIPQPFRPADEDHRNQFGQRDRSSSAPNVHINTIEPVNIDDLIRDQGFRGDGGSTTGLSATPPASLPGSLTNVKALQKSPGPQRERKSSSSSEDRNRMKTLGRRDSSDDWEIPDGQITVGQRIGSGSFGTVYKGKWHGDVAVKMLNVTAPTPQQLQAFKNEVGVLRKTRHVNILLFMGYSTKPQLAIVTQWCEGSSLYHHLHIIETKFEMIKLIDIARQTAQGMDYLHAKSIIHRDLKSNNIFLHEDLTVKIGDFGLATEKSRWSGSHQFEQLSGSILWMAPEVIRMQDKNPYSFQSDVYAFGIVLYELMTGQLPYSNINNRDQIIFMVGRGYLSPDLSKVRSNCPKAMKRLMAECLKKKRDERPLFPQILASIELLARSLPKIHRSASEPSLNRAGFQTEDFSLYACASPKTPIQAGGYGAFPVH

Fms = Fms (Homo sapiens, UniProt P07333); test: Kinase activity assay, Fms
Kdr = Kdr (Homo sapiens, UniProt P35968); test: Kinase activity assay, Kdr
Chain of Kdr (P35968 20-1356): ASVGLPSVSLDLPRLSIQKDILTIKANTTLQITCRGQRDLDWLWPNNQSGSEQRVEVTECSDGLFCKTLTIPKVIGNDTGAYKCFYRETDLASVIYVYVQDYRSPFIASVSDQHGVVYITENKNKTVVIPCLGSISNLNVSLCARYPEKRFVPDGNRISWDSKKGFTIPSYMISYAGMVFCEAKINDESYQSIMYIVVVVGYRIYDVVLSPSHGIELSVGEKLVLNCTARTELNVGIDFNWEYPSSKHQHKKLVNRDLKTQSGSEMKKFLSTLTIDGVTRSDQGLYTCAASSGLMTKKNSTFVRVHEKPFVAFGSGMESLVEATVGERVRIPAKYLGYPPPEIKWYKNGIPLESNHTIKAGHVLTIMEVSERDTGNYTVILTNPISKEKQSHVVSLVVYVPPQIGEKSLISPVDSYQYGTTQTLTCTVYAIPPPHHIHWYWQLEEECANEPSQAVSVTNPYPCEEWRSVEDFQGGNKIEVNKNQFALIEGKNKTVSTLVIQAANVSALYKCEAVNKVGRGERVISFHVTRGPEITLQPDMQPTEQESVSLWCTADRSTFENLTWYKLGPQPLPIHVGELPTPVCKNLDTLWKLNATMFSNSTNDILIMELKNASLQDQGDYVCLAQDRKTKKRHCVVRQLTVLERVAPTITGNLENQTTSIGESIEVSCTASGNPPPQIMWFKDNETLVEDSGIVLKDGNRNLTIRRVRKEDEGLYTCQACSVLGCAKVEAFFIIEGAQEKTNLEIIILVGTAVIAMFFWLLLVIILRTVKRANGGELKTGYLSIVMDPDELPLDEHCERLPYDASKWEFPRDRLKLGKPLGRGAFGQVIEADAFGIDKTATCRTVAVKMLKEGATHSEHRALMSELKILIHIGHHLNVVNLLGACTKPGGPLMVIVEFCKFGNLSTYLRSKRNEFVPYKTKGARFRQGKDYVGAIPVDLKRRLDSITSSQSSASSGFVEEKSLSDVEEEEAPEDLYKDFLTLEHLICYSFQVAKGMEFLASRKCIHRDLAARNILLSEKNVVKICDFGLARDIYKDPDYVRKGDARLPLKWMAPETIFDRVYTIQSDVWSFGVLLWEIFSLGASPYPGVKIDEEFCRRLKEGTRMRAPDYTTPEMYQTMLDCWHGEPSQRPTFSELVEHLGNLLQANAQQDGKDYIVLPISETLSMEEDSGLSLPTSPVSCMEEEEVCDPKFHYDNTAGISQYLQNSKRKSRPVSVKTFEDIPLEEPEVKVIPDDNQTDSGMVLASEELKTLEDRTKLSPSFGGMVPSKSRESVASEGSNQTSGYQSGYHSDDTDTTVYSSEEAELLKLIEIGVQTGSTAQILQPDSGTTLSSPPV

Kit = Kit (Homo sapiens, UniProt P10721); test: Kinase activity assay, Kit
Chain of Kit (P10721 26-976): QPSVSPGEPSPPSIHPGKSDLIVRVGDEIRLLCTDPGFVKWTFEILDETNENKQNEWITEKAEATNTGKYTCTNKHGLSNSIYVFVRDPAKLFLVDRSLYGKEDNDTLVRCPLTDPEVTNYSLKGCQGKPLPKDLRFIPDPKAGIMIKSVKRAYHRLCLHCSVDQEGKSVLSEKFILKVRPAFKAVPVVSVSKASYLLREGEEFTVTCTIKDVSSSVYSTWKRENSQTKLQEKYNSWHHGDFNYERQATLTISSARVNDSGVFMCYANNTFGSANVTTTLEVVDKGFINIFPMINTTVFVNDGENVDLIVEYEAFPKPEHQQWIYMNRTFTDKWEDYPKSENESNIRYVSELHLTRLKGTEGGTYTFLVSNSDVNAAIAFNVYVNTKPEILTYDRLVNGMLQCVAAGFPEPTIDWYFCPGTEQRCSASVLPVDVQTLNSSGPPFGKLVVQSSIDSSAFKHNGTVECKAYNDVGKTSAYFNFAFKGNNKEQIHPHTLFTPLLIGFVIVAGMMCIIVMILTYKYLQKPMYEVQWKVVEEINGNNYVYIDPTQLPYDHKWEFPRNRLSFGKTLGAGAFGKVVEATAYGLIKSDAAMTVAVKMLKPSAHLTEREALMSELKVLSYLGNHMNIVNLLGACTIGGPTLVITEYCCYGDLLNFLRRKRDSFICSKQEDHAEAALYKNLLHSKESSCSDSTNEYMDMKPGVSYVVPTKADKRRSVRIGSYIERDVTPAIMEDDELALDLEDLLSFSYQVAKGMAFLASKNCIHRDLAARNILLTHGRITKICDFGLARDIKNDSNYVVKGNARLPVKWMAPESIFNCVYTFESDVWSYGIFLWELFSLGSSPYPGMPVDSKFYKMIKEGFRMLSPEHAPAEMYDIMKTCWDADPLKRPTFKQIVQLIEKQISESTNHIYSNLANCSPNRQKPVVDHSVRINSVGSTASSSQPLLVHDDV

Src = Src (Homo sapiens, UniProt P12931); test: Kinase activity assay, Src
Chain of Src (P12931 whole entry): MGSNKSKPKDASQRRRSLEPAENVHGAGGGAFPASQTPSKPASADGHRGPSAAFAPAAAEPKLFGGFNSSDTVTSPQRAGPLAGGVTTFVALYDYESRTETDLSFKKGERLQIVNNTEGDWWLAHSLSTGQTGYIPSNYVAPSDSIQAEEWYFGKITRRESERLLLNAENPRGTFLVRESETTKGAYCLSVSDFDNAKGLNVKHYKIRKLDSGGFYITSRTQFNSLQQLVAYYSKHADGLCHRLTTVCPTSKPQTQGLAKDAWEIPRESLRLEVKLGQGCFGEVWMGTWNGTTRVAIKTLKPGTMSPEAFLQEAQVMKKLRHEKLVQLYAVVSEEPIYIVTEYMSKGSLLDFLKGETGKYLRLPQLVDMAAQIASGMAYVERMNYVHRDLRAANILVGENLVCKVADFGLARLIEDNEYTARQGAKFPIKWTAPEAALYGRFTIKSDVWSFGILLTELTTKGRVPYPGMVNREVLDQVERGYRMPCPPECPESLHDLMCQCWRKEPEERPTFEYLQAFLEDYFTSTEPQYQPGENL

TEC = target: T1, TEC (Homo sapiens, UniProt P42680); test: Kinase activity assay, TEC
T1 sequence (P42680 1-631): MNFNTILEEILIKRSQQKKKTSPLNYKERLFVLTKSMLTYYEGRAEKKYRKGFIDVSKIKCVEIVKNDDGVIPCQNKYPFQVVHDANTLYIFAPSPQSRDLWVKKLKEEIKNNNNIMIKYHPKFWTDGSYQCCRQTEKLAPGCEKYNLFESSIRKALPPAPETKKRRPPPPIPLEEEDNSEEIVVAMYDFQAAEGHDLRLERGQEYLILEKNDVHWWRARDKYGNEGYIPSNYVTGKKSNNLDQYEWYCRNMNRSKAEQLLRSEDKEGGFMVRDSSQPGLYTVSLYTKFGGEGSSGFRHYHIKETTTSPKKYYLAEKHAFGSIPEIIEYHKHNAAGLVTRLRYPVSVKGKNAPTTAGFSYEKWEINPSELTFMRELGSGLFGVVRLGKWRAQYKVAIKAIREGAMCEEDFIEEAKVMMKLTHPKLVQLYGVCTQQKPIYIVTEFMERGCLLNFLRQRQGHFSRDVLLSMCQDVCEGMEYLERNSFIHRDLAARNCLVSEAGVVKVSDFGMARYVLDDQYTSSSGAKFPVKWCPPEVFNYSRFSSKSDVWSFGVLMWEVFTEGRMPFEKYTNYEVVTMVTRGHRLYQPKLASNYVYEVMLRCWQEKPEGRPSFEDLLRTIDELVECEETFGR

C-Raf = C-Raf (Homo sapiens, UniProt P04049); test: Kinase activity assay, C-Raf
MAP4K4 = MAP4K4 (Homo sapiens, UniProt O95819); test: Kinase activity assay, MAP4K4
Chain of MAP4K4 (O95819 whole entry): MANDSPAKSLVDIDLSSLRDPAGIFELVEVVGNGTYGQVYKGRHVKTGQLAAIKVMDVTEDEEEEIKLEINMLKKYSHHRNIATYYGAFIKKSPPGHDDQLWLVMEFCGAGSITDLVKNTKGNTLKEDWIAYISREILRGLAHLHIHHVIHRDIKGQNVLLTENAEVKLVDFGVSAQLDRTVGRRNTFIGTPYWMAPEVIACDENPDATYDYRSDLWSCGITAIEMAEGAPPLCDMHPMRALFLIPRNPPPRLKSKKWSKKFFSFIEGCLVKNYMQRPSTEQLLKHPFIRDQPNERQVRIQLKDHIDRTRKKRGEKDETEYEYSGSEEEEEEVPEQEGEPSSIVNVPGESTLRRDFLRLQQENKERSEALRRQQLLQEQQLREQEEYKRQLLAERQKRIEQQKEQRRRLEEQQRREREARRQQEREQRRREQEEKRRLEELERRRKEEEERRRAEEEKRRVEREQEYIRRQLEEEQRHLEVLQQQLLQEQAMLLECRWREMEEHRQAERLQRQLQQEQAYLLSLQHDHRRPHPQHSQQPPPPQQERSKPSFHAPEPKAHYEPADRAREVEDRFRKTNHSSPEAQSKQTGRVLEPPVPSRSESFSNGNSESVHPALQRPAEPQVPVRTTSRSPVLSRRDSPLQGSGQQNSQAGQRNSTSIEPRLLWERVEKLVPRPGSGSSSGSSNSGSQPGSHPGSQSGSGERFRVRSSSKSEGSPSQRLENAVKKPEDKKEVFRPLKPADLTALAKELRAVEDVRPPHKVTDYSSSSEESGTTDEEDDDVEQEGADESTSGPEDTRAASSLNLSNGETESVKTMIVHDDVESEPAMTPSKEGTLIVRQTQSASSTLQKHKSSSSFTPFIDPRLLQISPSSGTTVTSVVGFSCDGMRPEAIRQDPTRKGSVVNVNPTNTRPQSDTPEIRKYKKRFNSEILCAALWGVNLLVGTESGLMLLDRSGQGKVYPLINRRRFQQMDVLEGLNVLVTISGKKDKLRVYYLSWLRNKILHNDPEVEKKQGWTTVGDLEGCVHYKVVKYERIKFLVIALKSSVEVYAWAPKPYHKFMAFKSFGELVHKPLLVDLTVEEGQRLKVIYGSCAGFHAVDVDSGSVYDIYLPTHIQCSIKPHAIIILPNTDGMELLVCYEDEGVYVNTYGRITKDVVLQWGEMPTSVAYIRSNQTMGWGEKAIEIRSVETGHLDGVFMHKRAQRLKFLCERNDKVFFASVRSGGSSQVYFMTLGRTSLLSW

Measured: IC50

Chain of B-Raf (P15056 whole entry): as the sequence (P15056 whole entry V600E) above, with E600V counted along it

O=C(c1c(F)ccc(NS(=O)(=O)c2c(F)cccc2F)c1F)c1c[nH]c2ncc(Cl)cc12 [P-2003, N-[3-(5-Chloro-1H-pyrrolo[2,3-b]pyridine-3-carbonyl)-2,4-difluoro-phenyl]-2,6-difluoro-benzenesulfonamide]
≤ 10 µM: all assays above

COc1ccnc2[nH]cc(C(=O)c3c(F)ccc(NS(=O)(=O)c4ccccc4F)c3F)c12 [P-2021, N-[2,4-Difluoro-3-(4-methoxy-1H-pyrrolo[2,3-b]pyridine-3-carbonyl)-phenyl]-2-fluoro-benzenesulfonamide]
not listed: Fms
≤ 10 µM: all other assays above

COc1ccnc2[nH]cc(C(=O)c3c(F)ccc(NS(=O)(=O)c4cccc(F)c4)c3F)c12 [P-2023, N-[2,4-Difluoro-3-(4-methoxy-1H-pyrrolo[2,3-b]pyridine-3-carbonyl)-phenyl]-3-fluoro-benzenesulfonamide]
not listed: Fms
≤ 10 µM: all other assays above

Cc1cnc2[nH]cc(C(=O)c3c(F)ccc(NS(=O)(=O)c4c(F)cccc4F)c3F)c2c1 [P-2024, N-[2,4-Difluoro-3-(5-methyl-1H-pyrrolo[2,3-b]pyridine-3-carbonyl)-phenyl]-2,6-difluoro-benzenesulfonamide]
not listed: Fms
≤ 10 µM: all other assays above

N#Cc1cnc2[nH]cc(C(=O)c3c(F)ccc(NS(=O)(=O)c4c(F)cccc4F)c3F)c2c1 [P-2029, N-[3-(5-Cyano-1H-pyrrolo[2,3-b]pyridine-3-carbonyl)-2,4-difluoro-phenyl]-2,6-difluoro-benzenesulfonamide]
not listed: Fms
≤ 10 µM: all other assays above

N#Cc1cnc2[nH]cc(C(=O)c3c(F)ccc(NS(=O)(=O)c4ccc(F)cc4F)c3F)c2c1 [P-2030, N-[3-(5-Cyano-1H-pyrrolo[2,3-b]pyridine-3-carbonyl)-2,4-difluoro-phenyl]-2,4-difluoro-benzenesulfonamide]
not listed: Fms
≤ 10 µM: all other assays above

COc1ccnc2[nH]cc(C(=O)c3c(F)ccc(NS(=O)(=O)c4c(F)cccc4F)c3F)c12 [P-2031, N-[2,4-Difluoro-3-(4-methoxy-1H-pyrrolo[2,3-b]pyridine-3-carbonyl)-phenyl]-2,6-difluoro-benzenesulfonamide]
not listed: Fms
≤ 10 µM: all other assays above

O=C(c1c(F)ccc(NS(=O)(=O)c2cccnc2)c1F)c1c[nH]c2ncc(Cl)cc12 [P-2071, Pyridine-3-sulfonic acid [3-(5-chloro-1H-pyrrolo[2,3-b]pyridine-3-carbonyl)-2,4-difluoro-phenyl]-amide]
≤ 10 µM: Kit | Src | TEC | MAP4K4

CCCC(C)S(=O)(=O)Nc1ccc(F)c(C(=O)c2c[nH]c3ncc(OC)cc23)c1F (stereo not drawn) [P-2309, Pentane-2-sulfonic acid [2,4-difluoro-3-(5-methoxy-1H-pyrrolo[2,3-b]pyridine-3-carbonyl)-phenyl]-amide]
not listed: B-Raf | Fms | C-Raf
≤ 10 µM: all other assays above

CCC(C)S(=O)(=O)Nc1ccc(F)c(C(=O)c2c[nH]c3ncc(Cl)cc23)c1F (stereo not drawn) [P-2310, Butane-2-sulfonic acid [3-(5-chloro-1H-pyrrolo[2,3-b]pyridine-3-carbonyl)-2,4-difluoro-phenyl]-amide]
not listed: Fms
≤ 10 µM: all other assays above

COc1cnc2[nH]cc(C(=O)c3c(F)ccc(NS(=O)(=O)C4CCCCC4)c3F)c2c1 [P-2355, Cyclohexanesulfonic acid [2,4-difluoro-3-(5-methoxy-1H-pyrrolo[2,3-b]pyridine-3-carbonyl)-phenyl]-amide]
not listed: Fms
≤ 10 µM: all other assays above

COc1cnc2[nH]cc(C(=O)c3c(F)ccc(NS(=O)(=O)C4CCCC4)c3F)c2c1 [P-2356, Cyclopentanesulfonic acid [2,4-difluoro-3-(5-methoxy-1H-pyrrolo[2,3-b]pyridine-3-carbonyl)-phenyl]-amide]
not listed: Fms
≤ 10 µM: all other assays above

O=C(c1c(F)ccc(NS(=O)(=O)C2CCCCC2)c1F)c1c[nH]c2ncc(Cl)cc12 [P-2357, Cyclohexanesulfonic acid [3-(5-chloro-1H-pyrrolo[2,3-b]pyridine-3-carbonyl)-2,4-difluoro-phenyl]-amide]
not listed: Fms
≤ 10 µM: all other assays above

Cc1cnc2[nH]cc(C(=O)c3c(F)ccc(NS(=O)(=O)N(C)C)c3F)c2c1 [P-2382, N,N-dimethylamino-sulfonic acid [2,4-difluoro-3-(5-methyl-1H-pyrrolo[2,3-b]pyridine-3-carbonyl)-phenyl]-amide]
not listed: Fms | Kit
≤ 10 µM: all other assays above

Cc1cnc2[nH]cc(C(=O)c3cc(NS(=O)(=O)C4CCCCC4)ccc3F)c2c1 [P-2443, Cyclohexanesulfonic acid [4-fluoro-3-(5-methyl-1H-pyrrolo[2,3-b]pyridine-3-carbonyl)-phenyl]-amide]
≤ 10 µM: Fms | Kdr | Kit | TEC | MAP4K4
